Tests used:
[1] = target: T1, human glucocorticoid receptor (GR) complex (Homo sapiens, UniProt P04150); assay: Glucocorticoid receptor competitive binding assay (fluorescence polarization); settings: competition with TAMRA-labeled dexamethasone; result in words only
T1 construct: made in house; host or cells: insect cells (baculovirus expression), used as crude lysate
T1 sequence (P04150 1-777): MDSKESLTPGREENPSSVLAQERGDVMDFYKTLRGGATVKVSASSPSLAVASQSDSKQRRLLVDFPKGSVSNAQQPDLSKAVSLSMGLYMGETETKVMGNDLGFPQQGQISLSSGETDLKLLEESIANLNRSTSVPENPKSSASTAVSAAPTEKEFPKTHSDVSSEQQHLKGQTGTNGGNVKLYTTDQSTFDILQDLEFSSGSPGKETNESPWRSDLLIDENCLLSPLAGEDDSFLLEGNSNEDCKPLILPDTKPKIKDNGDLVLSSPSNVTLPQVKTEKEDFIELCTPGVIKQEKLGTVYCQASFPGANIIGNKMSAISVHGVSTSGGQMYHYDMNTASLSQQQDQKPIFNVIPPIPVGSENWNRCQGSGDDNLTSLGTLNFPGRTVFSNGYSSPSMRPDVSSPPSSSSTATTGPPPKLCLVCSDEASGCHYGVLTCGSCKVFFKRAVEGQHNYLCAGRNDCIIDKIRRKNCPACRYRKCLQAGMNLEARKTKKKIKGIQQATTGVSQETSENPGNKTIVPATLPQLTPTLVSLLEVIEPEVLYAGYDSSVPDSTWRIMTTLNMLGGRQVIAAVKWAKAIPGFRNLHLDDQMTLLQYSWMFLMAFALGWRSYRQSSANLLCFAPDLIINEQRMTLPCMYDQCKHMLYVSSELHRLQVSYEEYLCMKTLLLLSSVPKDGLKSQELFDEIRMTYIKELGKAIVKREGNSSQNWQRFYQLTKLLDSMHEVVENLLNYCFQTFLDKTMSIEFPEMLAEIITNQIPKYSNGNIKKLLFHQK
Method: Compounds of the invention were evaluated for binding to the steroid receptor by a fluorescence polarization competitive binding assay. Detailed descriptions for preparation of recombinant glucocorticoid receptor (GR) complex used in the assay is described in U.S. Patent Application Publication No. US 2003/0017503, filed May 20, 2002, and incorporated herein by reference in its entirety. Preparation of the tetramethyl rhodamine (TAMRA)-labeled dexamethasone probe was accomplished using a standard literature procedure (M. Pons et al., J. Steroid Biochem., 1985, 22, pp. 267-273).
A. Glucocorticoid Receptor Competitive Binding Assay
The affinity of the probe for the steroid receptor was then determined in a titration experiment. The fluorescence polarization value of the probe in assay buffer was measured on an SLM-8100 fluorometer using the excitation and emission maximum values described above. Aliquots of expression vector lysate were added and fluorescence polarization was measured after each addition until no further change in polarization value was observed. Non-linear least squares regression analysis was used to calculate the dissociation constant of the probe from the polarization values obtained for lysate binding to the probe.
(§1) This assay uses fluorescence polarization (FP) to quantitate the ability of test compounds to compete with tetramethyl rhodamine (TAMRA)-labeled dexamethasone for binding to a human glucocorticoid receptor (GR) complex prepared from an insect expression system. The assay buffer was: 10 mM TES, 50 mM KCl, 20 mM Na2MoO4.2H2O, 1.5 mM EDTA, 0.04% w/v CHAPS, 10% v/v glycerol, 1 mM dithiothreitol, pH 7.4. Test compounds were dissolved to 1 mM in neat DMSO and then further diluted to 10× assay concentration in assay buffer supplemented with 10% v/v DMSO. Test compounds were serially diluted at 10× assay concentrations in 10% DMSO-containing buffer in 96-well polypropylene plates. Binding reaction mixtures were prepared in 96-well black Dynex microtiter plates by sequential addition of the following assay components to each well: 15 μL of 10× test compound solution, 85 μL of GR-containing baculovirus lysate diluted 1:170 in assay buffer, and 50 μL of 15 nM TAMRA-labeled dexamethasone. Positive controls were reaction mixtures containing no test compound; negative controls (blanks) were reaction mixtures containing 0.7 μM to 2 μM dexamethasone. The binding reactions were incubated for 1 hour at room temperature and then read for fluorescence polarization in the LJL Analyst set to 550 nm excitation and 580 nm emission, with the Rhodamine 561 dichroic mirror installed. IC50 values were determined by iterative non-linear curve fitting of the FP signal data to a 4-parameter logistic equation.

glucocorticoid receptor = assay: Glucocorticoid receptor function, one or more of the above assays (not specified which); type: cell-based; settings: in one or more of the above assays; result in words only
Method: as §1, with “Positive controls were reaction mixtures containing no test compound; negative controls (blanks) were reaction mixtures containing 0.7 μM to 2 μM dexamethasone.” left out
Dexamethasone, a synthetic ligand to the glucocorticoid receptor (GR), induces expression of aromatase in human foreskin fibroblast cells. The activity of aromatase is measured by the conversion of testosterone to estradiol in culture media.
Human foreskin fibroblast cells (ATCC Cat. No. CRL-2429, designation CCD112SK) are plated on 96 well plates at 50,000 cells per well 5 days before use, in Iscove's Modified Dulbecco's Media (GibcoBRL Life Technologies Cat No. 12440-053) supplemented with 10% charcoal filtered FBS (Clonetech Cat No. SH30068) and Gentamycin (GibcoBRL Life Technologies Cat. No. 15710-064). […] The extent of aromatase induction by test compounds is expressed as a relative percentage to dexamethasone. […]

Row | activity in the GR binding assay [1] | activity as an agonist of the glucocorticoid receptor function (glucocorticoid receptor) | Structure (SMILES)
1 | potent activity |  | CC1(CC(O)(Cc2ccnc3ccccc23)C(F)(F)F)CCc2ccccc21 (stereo not drawn) [1,1,1-Trifluoro-3-(1-methylindan-1-yl)-2-quinolin-4-ylmethylpropan-2-ol]
2 | potent activity | activity as an agonist | CC1(CC(O)(Cc2cc3ccccc3[nH]2)C(F)(F)F)CCOc2ccc(F)cc21 (stereo not drawn) [1,1,1-Trifluoro-3-(6-fluoro-4-methylchroman-4-yl)-2-(1H-indol-2-ylmethyl)propan-2-ol]
3 |  | activity as an agonist | CC1(CC(O)(Cc2ccnc3ccccc23)C(F)(F)F)CCOc2ccc(F)cc21 (stereo not drawn) [1,1,1-Trifluoro-3-(6-fluoro-4-methylchroman-4-yl)-2-quinolin-4-ylmethylpropan-2-ol]
4 | potent activity |  | OC(Cc1ccnc2ccccc12)(CC1CCOc2ccc(F)cc21)C(F)(F)F (stereo not drawn) [1,1,1-Trifluoro-3-(6-fluorochroman-4-yl)-2-quinolin-4-ylmethylpropan-2-ol]
5 | potent activity |  | CC1(CC(O)(Cc2ccc(C#N)cc2Cl)C(F)(F)F)CCOc2ccc(F)cc21 (stereo not drawn) [3-Chloro-4-[3,3,3-trifluoro-2-(6-fluoro-4-methylchroman-4-ylmethyl)-2-hydroxypropyl]benzonitrile]
6 | potent activity | activity as an agonist | Cc1cc(C#N)cc2[nH]c(CC(O)(CC3(C)CCOc4ccc(F)cc43)C(F)(F)F)cc12 (stereo not drawn) [4-Methyl-2-[3,3,3-trifluoro-2-(6-fluoro-4-methylchroman-4-ylmethyl)-2-hydroxypropyl]-1H-indole-6-carbonitrile]
7 | potent activity |  | Cc1cc(C#N)cc2[nH]c(CC(O)(CC3(C)CCOc4ccc(S(C)(=O)=O)cc43)C(F)(F)F)cc12 (stereo not drawn) [4-Methyl-2-[3,3,3-trifluoro-2-hydroxy-2-(6-methanesulfonyl-4-methylchroman-4-ylmethyl)propyl]-1H-indole-6-carbonitrile]
